Source: patent publication US10538528B2, “5H-pyrrolo[2,3-D]pyrimidin-6(7H)-one derivative” (Taiho Pharmaceutical Co., Ltd., priority 2016, dated 2020)

Tests used:
[1] = system: HEC-6 cells (endometrial cancer cell lines); assay: Cell growth suppression test on HEC-6 cells (CellTiter-Glo); format: cell-based; details: 72 h, read-out: Cell growth inhibition GI50, heading: Cell growth inhibition GI50, 3 days, table head prints μM, method says GI50 (nM)
Experimental: The in vitro cell growth suppression test on HEC-6 cells (endometrial cancer cell lines) was performed under the conditions described below.
HEC-6 cells (Health Science Research Resources Bank, Cell Number: JCRB1118) cultured in a MEM medium containing 15% FBS (GIBCO, Cat#: 10370) were seeded on a 384-well flat bottom microplate (CORNING, Cat#: 3571) at 500 cells/well (20 μl) and cultured in an incubator containing 5% carbon dioxide at 37° C. for 1 day. The compound according to the present invention subjected to serial dilution with dimethyl sulfoxide or dimethyl sulfoxide alone was added to a MEM medium containing 15% FBS. […] Thereafter, the luminescence level derived from viable cells in each well was assayed with the use of the Multimode Plate Reader (PerkinElmer, EnVision). […] Thereafter, the luminescence level derived from viable cells in each well was assayed with the use of the Multimode Plate Reader. […] Cell growth rate (%)=(T−C0)/(C−C0)×100, provided that T is equal to or greater than C0(T≥C0) Cell growth rate (%)=(T−C0)/C0×100, provided that T is less than C0(T<C0) C0: Luminescence level in each well when the compound is added (count per second) C: Luminescence level in each well when dimethyl sulfoxide is added alone (count per second) T: Luminescence level in each well when the test compound is added (count per second) […]

human Akt1 = human Akt1 (Homo sapiens (Human), UniProt P31749); assay: Inhibitory effects on Akt1 kinase activity (TR-FRET, biotinylated Crosstide); format: biochemical; details: Akt1, ATP 150 μM, pre-incubation 120 minutes at 25° C.; read-out: AKT inhibitory activity IC50
human Akt1, sequence (P31749 whole entry): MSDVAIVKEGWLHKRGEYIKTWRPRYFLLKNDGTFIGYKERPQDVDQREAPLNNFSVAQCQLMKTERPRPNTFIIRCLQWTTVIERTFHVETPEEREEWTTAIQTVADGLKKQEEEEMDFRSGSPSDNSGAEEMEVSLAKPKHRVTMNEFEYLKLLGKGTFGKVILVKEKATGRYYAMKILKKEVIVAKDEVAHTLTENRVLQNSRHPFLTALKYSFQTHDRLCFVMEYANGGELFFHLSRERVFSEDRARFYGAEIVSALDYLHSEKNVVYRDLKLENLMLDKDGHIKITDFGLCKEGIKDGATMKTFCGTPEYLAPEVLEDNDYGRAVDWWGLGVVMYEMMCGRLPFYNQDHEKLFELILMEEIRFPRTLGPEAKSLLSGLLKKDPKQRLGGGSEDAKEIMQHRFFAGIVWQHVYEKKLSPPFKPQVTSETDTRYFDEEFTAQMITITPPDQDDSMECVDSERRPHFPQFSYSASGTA
Outline: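 Middle T-tagged human Akt1 from Sf9 cells, PDK1-activated, pre-incubated with compound 120 min at 25 °C (Tris pH 7.5); then 500 nM biotin-Crosstide, 10 mM MgCl2, 150 μM ATP for 60 min at 25 °C. Eu-anti-phospho-Crosstide/APC-SA TR-FRET 665/620 ratio; IC50 as 50% phosphorylation inhibition.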

[2] = system: RKO cells (human colon cancer cell lines); assay: Cell growth inhibition study using RKO cells (CellTiter-Glo); format: cell-based; details: 72 h, 3 days
Experimental: The in vitro cell growth inhibition study using RKO cells (human colon cancer cell lines) was conducted as described below.
RKO cells (ATCC, Cat#: CRL-2577) cultured in a MEM medium (GIBCO, Cat#:10370-088) supplemented with 10% FBS, 1 mM L-glutamine (GIBCO, Cat#:25030), and 1 mM sodium pyruvate (GIBCO, Cat#:11360) were seeded in a 96-well flat bottom microplate (COSTAR, Cat#:3904) at 2×10^3 cells (150 μl) and cultured in an incubator containing 5% CO2 at 37° C. for 1 day. The compound according to the present invention subjected to serial dilution with dimethyl sulfoxide or dimethyl sulfoxide alone was added to a MEM medium containing 10% FBS, 1 mM L-glutamine, and 1 mM sodium pyruvate. The resultant medium containing the compound or dimethyl sulfoxide alone was added to the RKO cells in the culture plate by 50 μl/well at the final concentration of the compound to 10, 3, 1, 0.3, 0.1, 0.03, 0.01, 0.003, and 0 μM, respectively. Another RKO cell culture plate separately prepared was allowed to stand at room temperature for 30 minutes, then 100 μl of the medium was removed, and added 50 μl of CellTiter-Glo® 2.0 Assay (Promega, Cat#:G9242) to each well. After the plates were placed in the dark for 10 minutes, the luminescence level derived from viable cells in each well was measured by the Multimode Plate Reader (PerkinElmer, EnSpire). The cells treated with the compound or dimethyl sulfoxide alone were cultured at 37° C. in an incubator containing 5% CO2 for an additional 3 days. After incubation, the culture plate was placed at room temperature for 30 minutes, and 150 μl of the supernatant was removed from each well to adjust the amount of the remaining cell culture solution to 50 μl each. To 50 μl of the remaining cell culture solution, the equivalent amount of CellTiter-Glo® 2.0 Assay was added. After the cell culture plate was placed in the dark for 10 minutes, the luminescence level derived from viable cells in each well was assayed with the use of the Multimode Plate Reader. The cell growth rate was calculated by the formulae shown below and the concentration at which the cell growth rate became 50%; i.e., the concentration of the compound according to the present invention at which cell growth would be inhibited by 50% was determined (GI50 (nM)). Cell growth rate (%)=(T−C0)/(C−C0)×100, provided that T is equal to or greater than C0(T≥C0) Cell growth rate (%)=(T−C0)/C0×100, provided that T is less than C0(T<C0) C0: Luminescence level in each well when the compound is added (count per second) C: Luminescence level in each well when dimethyl sulfoxide is added alone (count per second) T: Luminescence level in each well when the test compound is added (count per second)
As control compounds, conventional Comparative Example A (WO 2010/056563 (Example 31)) and Comparative Example B having inhibitory activity against Akt were used.
The GI50 levels of representative compounds according to the present invention and reference compounds in RKO cells were evaluated, and the results are shown in Table 5.

Row | GI50 [1] | IC50 (human Akt1) | GI50 [2] | Compound
1 | 2.92 µM | 0.657 µM | 2.64 µM | CC(C)(C)NCCNc1cc(-c2cncc(F)c2)nc(C2CCN(c3ncnc4c3C(C)(C)C(=O)N4)CC2)c1 [Comparative Example B, 4-(4-(4-((2-(Tert-butylamino)ethyl)amino)-5′-fluoro-[2,3′-bipyridin]-6-yl)piperidin-1-yl)-5,5-dimethyl-5H-pyrrolo[2,3-d]pyrimidin-6(7H)-one, reference compound]
2 | 1.04 µM |  | 1.05 µM | CN(C)CCn1cc(-c2ccc(F)c(C(F)(F)F)c2)nc1C1CCN(c2ncnc3c2C(C)(C)C(=O)N3)CC1 [Comparative Example A, reference compound]
